# From patent US20250361243A1, “Compounds and Pharmaceutical Compositions Useful for Managing Sickle Cell Disease and Conditions Related Thereto” (Emory University, priority 2022, published 2025)
# Read-outs that look alike come from different tables or passages of the source.
# Tests used:
# Type in all cases: cell-based
# [1] = tested on: ss Mouse RBC; test: Imaging-based anti-sickling assay, ss mouse RBC; conditions: read-out: Anti-sickling activity (EC50; μM) ss Mouse RBC
# Description: (§1) An imaging assay utilizing automated microscopy and customized algorithms was used to detect sickled or normal (round shaped) RBCs. The assay is capable of discovering anti-sickling agents with physiologically relevant oxygen affinity. The assay uses native mouse or human RBCs, enabling one to identify a broader spectrum of agents and is not restricted to compounds that require direct interaction (e.g., with purified hemoglobin). Thus, in contrast to hemoglobin binding assays, this approach allows for the identification of additional classes of anti-sickling agents that modulate pathways affecting RBC sickling. Compounds resulting from the experiments are also useful for investigating SCD pathophysiology.
# (§2) The imaging-based protocol that can distinguish sickled vs normal (round) phenotype of intact RBCs originating from genetically engineered mice expressing human hemoglobin genes (the HbSS Townes knock-in sickle mice), or 2) SCD patients. The imaging was conducted using a BioTek Cytation™ cell imaging multimode reader and software to detect sickled or normal round-shaped phenotype of RBCs with negative control (vehicle treatment) and a positive control, 5-hydroxymethylfurfural (5-HMF).
# [2] = tested on: Human RBC; test: Imaging-based anti-sickling assay, human RBC
# Description: as §1, §2
# [3] = tested on: RBCs; test: Anti-sickling activity normalized to 5 mM 5-HMF (Table 2); conditions: for EC50: read-out: EC50 for anti-sickling activity (uM, normalized to positive control of 5 mM 5-HMF)
# Description: as §1, §2
# [4] = Homo sapiens; read-out: Anti-sickling activity (EC50; μM) Human RBC
SMILES,EC50 [1] [µM],"EC50 [2, 4] [µM]",other results
"O=C1C=CC(=O)N1c1cccc(Cl)c1 [HDYB-1, 1-(3-chlorophenyl)-1H-pyrrole-2,5-dione]",5,6.3,
"Cc1ccc(N2C(=O)C=CC2=O)cc1Cl [HDYB-2, 1-(3-chloro-4-methylphenyl)-1H-pyrrole-2,5-dione]",15,19,
"O=C1C=CC(=O)N1c1cccc(C(F)(F)F)c1 [HDYB-3, 1-(3-(trifluoromethyl)phenyl)-1H-pyrrole-2,5-dione]",12,12,
"O=C1C=CC(=O)N1c1ccccc1 [HDYB-5, 1-phenyl-1H-pyrrole-2,5-dione]",21,17,
"O=C1C=CC(=O)N1c1ccc(Br)cc1Cl [HDYB-6, 1-(4-bromo-2-chlorophenyl)-1H-pyrrole-2,5-dione]",20,12,
"Cc1cc(Cl)cc(-c2ccccc2)c1N1C(=O)C=CC1=O [HDYB-8, 1-(5-chloro-3-methyl-[1,1′-biphenyl]-2-yl)-1H-pyrrole-2,5-dione]",< 100,< 100,
O=C1C=CC(=O)N1CCCCN1C(=O)C=CC1=O [HDYB-9],29,78,
O=C1C=CC(=O)N1c1cccc(N2C(=O)C=CC2=O)c1 [HDYB-10],78,57,
O=C1C=C(Nc2ccccc2)C(=O)N1c1ccccc1 [HDYB-11],< 100,< 100,
"Cc1ccc(Cl)cc1N1C(=O)C=CC1=O [HDYB-12, 1-(5-chloro-2-methylphenyl)-1H-pyrrole-2,5-dione]",16,12,
"O=C1C=CC(=O)N1c1ccc(Br)c(Cl)c1 [HDYB-14, 1-(4-bromo-3-chlorophenyl)-1H-pyrrole-2,5-dione]",27,23,
O=C1C=CC(=O)N1c1cccnc1 [HDYB-15],< 100,< 100,
Cc1ccc(N2C(=O)C=CC2=O)nc1 [HDYB-16],< 100,< 100,
O=C1C=CC(=O)N1c1cnc2ccccc2c1 [HDYB-17],< 100,< 100,
O=C1C(=O)N(Cc2ccccc2)c2ccc(Cl)cc21 [HDYB-19],27,25,
O=C1C(=O)N(Cc2ccc(C(F)(F)F)cc2)c2ccc(Cl)cc21 [HDYB-20],22,26,
"Cc1ccc(N2C(=O)C=CC2=O)cc1 [HDYB-21, 1-(p-tolyl)-1H-pyrrole-2,5-dione]",37,32,
"O=C1C=CC(=O)N1c1ccc(I)cc1 [HDYB-22, 1-(4-iodophenyl)-1H-pyrrole-2,5-dione]",13,41,
"O=C1C=CC(=O)N1c1ccc(-c2ccccc2)cc1 [HDYB-23, 1-([1,1′-biphenyl]-4-yl)-1H-pyrrole-2,5-dione]",68,,"EC50 ([2]; Homo sapiens, read-out: Anti-sickling activity (EC50; μM) Human RBC): 52 µM"
"O=C1C=CC(=O)N1c1cccc(F)c1 [HDYB-24, 1-(3-fluorophenyl)-1H-pyrrole-2,5-dione]",11,14,
"O=C1C=CC(=O)N1c1cc(Cl)c(N2C(=O)C=CC2=O)cc1Cl [HDYB-25, 1,1′-(2,5-dichloro-1,4-phenylene)bis(1H-pyrrole-2,5-dione)]",10,12,
"O=C1C=CC(=O)N1c1ccc2c(c1)CCO2 [HDYB-26, 1-(2,3-dihydrobenzofuran-5-yl)-1H-pyrrole-2,5-dione]",9,13,
"O=C1OCc2ccc(N3C(=O)C=CC3=O)cc21 [HDYB-27, 1-(3-oxo-1,3-dihydroisobenzofuran-5-yl)-1H-pyrrole-2,5-dione]",10,11,
"CC(C)CCNCC(O)Cn1c2ccc(Cl)cc2c2cc(Cl)ccc21 (stereo not shown) [SCAS2-A2, 1-(3,6-dichloro-9H-carbazol-9-yl)-3-(isopentylamino) propan-2-ol]",,,"Anti-sickling activity (%, normalized to positive control of 5 mM 5-HMF) ([3]; 10 uM): 21.45%; Anti-sickling activity (%, normalized to positive control of 5 mM 5-HMF) ([3]; 33 uM): 25.26%; Anti-sickling activity (%, normalized to positive control of 5 mM 5-HMF) ([3]; 100 uM): 213.95%"
"CC(C)CCNCC(O)Cn1c2ccc(Br)cc2c2cc(Br)ccc21 (stereo not shown) [SCAS2-A13, 1-(3,6-dibromo-9H-carbazol-9-yl)-3-(isopentylamino) propan-2-ol]",,,"Anti-sickling activity (%, normalized to positive control of 5 mM 5-HMF) ([3]; 10 uM): 71.04%; Anti-sickling activity (%, normalized to positive control of 5 mM 5-HMF) ([3]; 33 uM): 90.158%; Anti-sickling activity (%, normalized to positive control of 5 mM 5-HMF) ([3]; 100 uM): 35.39%"
"CCC(C)NCC(O)Cn1c2ccc(Cl)cc2c2cc(Cl)ccc21 (stereo not shown) [SCAS2-A14, 1-(sec-butylamino)-3-(3,6-dichloro-9H-carbazol-9-yl) propan-2-ol]",,,"Anti-sickling activity (%, normalized to positive control of 5 mM 5-HMF) ([3]; 10 uM): 24.26%; Anti-sickling activity (%, normalized to positive control of 5 mM 5-HMF) ([3]; 33 uM): 78.71%; Anti-sickling activity (%, normalized to positive control of 5 mM 5-HMF) ([3]; 100 uM): 131.87%"
"COc1ccc(Cl)cc1NC(=O)Nc1nc2c(s1)CN(S(=O)(=O)N(C)C)CC2 [SCAS2_01, 2-(3-(5-chloro-2-methoxyphenyl)ureido)-N,N-dimethyl-6,7-dihydrothiazolo[5,4-c]pyridine-5 (4H)-sulfonamide]",,,EC50 [3]: 1.1 µM
"Nc1nc2ccc(S(=O)(=O)N3CCCCC3)cc2s1 [SCAS2_02, 6-(piperidin-1-ylsulfonyl)benzo[d]thiazol-2-amine]",,,EC50 [3]: 25.4 µM
"COc1ccc(Cl)cc1NC(=O)Nc1nc2c(s1)CN(S(=O)(=O)C1CC1)CC2 [SCAS2_05, 1-(5-chloro-2-methoxyphenyl)-3-(5-(cyclopropylsulfonyl)-4,5,6,7-tetrahydrothiazolo[5,4-c]pyridin-2-yl)urea]",,,EC50 [3]: 2.25 µM; round shape morphology of RBCs ([2]; FIG. 2; 50 μM; compared to normoxic conditions and control drug 5 mM 5-HMF): fully restore round shape morphology; prevention of sickling of RBCs from sickle cells patients ([2]; FIG. 2; dose response): dose dependently prevent sickling
"CC(C)(C)SCC(O)Cn1c2ccc(Cl)cc2c2cc(Cl)ccc21 (stereo not shown) [SCAS2_61, 1-(tert-butylthio)-3-(3,6-dichloro-9H-carbazol-9-yl) propan-2-ol]",,,EC50 [3]: 3.12 µM
